Assay results as given in patent US20260199346A1, “METHODS OF TREATING SOLID TUMORS DRIVEN BY HER2 ALTERATIONS WITH TUCATINIB IN COMBINATION WITH AN ANTI-HER2 ANTIBODY” (Seagen Inc., priority 2020, published 2026).

Experiments:
[1] = molecular target: T1, HER2 (Homo sapiens, UniProt P04626); assay: HER2 internalization assay using Trastuzumab-QF (lysosomal processing); assay type: cell-based; conditions: tucatinib 100 nM; SK-BR-3 cells; Trastuzumab-QF in the presence of chloroquine
Experimental: (§1) To probe the dynamics of HER2 at the cell surface upon binding to antibody therapeutics in the presence or absence of tucatinib (100 nM), SK-BR-3 cells were incubated with fluorescently-labeled trastuzumab (Trastuzumab-AF488) to mark HER2 at the cell surface. Excess antibody was washed out. Cells were imaged at time points spanning 72 hours to observe internalization of surface-bound antibody. […] Concurrent experiments were conducted with trastuzumab labeled with QF (Trastuzumab-QF) […], a quenched fluorophore which fluoresces upon lysosomal processing and can serve as a proxy for antibody catabolism.

[2] = molecular target: T1, HER2; assay: cellular signaling assays, selectivity for HER2 compared to EGFR; assay type: cell-based; design: four different HER2-amplified breast cancer cell lines (BT-474, SK-BR-3, HCC-1419, and UACC-893); endogenous in cells; host or cells: BT-474, SK-BR-3, HCC-1419, UACC-893
Description: (§2) Tucatinib inhibits the HER2-driven mitogen-activated protein and PI3 kinase signaling pathways, resulting in inhibition of tumor cell proliferation, survival, and metastasis.

[3] = molecular target: T1, HER2; assay: HER2 total protein levels by western blot analysis (WES system), normalized against GAPDH; assay type: cell-based; design: four different HER2-amplified breast cancer cell lines (BT-474, SK-BR-3, HCC-1419, and UACC-893); endogenous in cells; host or cells: BT-474, SK-BR-3, HCC-1419, UACC-893; conditions: 30 nM or 100 nM tucatinib, 24 hours and 48 hours; BT-474, SK-BR-3, HCC-1419 and UACC-893 HER2-amplified breast cancer cell lines
Experimental: (§3) Protein lysates were generated from cells harvested at each time point, HER2 total protein levels were determined by western blot analysis using a WES system, and normalized against GAPDH levels as a loading control. As shown in FIG. 1A-1D, in all four cell lines tested, HER2 total protein levels increased after treatment with tucatinib relative to untreated cell lines. Total HER2 protein levels are shown as a percentage of the total HER2 protein levels of untreated cells. Plasma membrane-bound levels of HER2 were determined by quantitative FACS (qFACS) analysis after exclusion of dead cells. As shown in FIG. 1E-1H, treatment with either 30 nM or 100 nM increased plasma membrane-bound HER2 protein levels in all four cell lines relative to untreated cell lines. Plasma membrane-bound HER2 protein levels are shown as a percentage of the plasma membrane-bound HER2 protein levels of untreated cells.

[4] = molecular target: T1, HER2; assay: plasma membrane-bound HER2 levels by quantitative FACS (qFACS); assay type: cell-based; design: four different HER2-amplified breast cancer cell lines (BT-474, SK-BR-3, HCC-1419, and UACC-893); endogenous in cells; host or cells: BT-474, SK-BR-3, HCC-1419, UACC-893; conditions: 30 nM or 100 nM tucatinib, 24 hours and 48 hours; BT-474, SK-BR-3, HCC-1419 and UACC-893 HER2-amplified breast cancer cell lines
Experimental: as §3

[5] = molecular target: T1, HER2; assay: HER2 internalization assay using Trastuzumab-AF488; assay type: cell-based; conditions: tucatinib 100 nM, SK-BR-3 cells, imaged at time points spanning 72 hours
Experimental: as §1

[6] = molecular target: T1, HER2; assay: inhibition of HER2 in vitro; assay type: biochemical
Description: as §2

T1 sequence (P04626 23-1255): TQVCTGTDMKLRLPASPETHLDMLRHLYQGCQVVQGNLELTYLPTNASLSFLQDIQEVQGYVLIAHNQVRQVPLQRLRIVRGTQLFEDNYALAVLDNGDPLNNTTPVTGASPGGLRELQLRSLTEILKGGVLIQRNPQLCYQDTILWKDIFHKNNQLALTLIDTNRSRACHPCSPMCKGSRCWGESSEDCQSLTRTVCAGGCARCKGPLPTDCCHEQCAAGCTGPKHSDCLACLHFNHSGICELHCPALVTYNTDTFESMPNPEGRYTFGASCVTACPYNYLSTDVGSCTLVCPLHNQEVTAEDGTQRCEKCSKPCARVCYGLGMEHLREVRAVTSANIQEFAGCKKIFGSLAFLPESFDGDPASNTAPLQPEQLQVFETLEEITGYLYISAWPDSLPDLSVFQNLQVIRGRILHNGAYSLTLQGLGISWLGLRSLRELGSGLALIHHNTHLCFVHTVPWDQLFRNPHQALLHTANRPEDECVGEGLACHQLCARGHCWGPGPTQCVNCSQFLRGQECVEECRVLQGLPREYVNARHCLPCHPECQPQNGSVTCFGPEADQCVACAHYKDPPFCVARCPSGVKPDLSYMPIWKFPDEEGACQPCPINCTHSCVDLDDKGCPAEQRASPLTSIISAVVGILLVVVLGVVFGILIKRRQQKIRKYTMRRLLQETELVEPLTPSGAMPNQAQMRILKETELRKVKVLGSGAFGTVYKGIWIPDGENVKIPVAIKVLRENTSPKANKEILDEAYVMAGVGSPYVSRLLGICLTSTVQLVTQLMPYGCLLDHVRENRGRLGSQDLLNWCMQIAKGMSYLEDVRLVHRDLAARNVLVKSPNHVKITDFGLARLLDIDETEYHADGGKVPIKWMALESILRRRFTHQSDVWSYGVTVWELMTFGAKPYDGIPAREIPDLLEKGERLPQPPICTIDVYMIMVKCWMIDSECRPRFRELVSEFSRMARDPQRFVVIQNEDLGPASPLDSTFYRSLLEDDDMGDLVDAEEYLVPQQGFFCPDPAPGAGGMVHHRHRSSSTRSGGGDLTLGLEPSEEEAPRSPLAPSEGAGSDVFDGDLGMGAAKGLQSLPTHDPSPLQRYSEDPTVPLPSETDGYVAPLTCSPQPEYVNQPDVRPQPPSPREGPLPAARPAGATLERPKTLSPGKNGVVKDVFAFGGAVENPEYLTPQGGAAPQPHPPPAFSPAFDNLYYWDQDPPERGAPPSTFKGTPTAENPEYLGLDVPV

Q: What does the source list for `Cc1cc(Nc2ncnc3ccc(NC4=NC(C)(C)CO4)cc23)ccc1Oc1ccn2ncnc2c1` [tucatinib, N^4-(4-([1,2,4]triazolo[1,5-a]pyridin-7-yloxy)-3-methylphenyl)-N^6-(4,4-dimethyl-4,5-dihydrooxazol-2-yl) quinazoline-4,6-diamine]?
A: internalization and lysosomal processing of HER2-bound antibody [1]: rapid internalization and lysosomal processing; selectivity for HER2 compared to the closely related kinase EGFR [2]: > 1000 fold; HER2 total protein levels relative to untreated cell lines [3]: increased; plasma membrane-bound HER2 protein levels relative to untreated cell lines [4]: increased; dwell time of HER2 at the cell surface [5]: increased; inhibition of HER2 in vitro [6]: potent inhibitor of HER2 in vitro
